Blank lines part the entries; values can stand above or below the compound they belong to.
What was measured:
[1] = biological target: T1, Serine/threonine-protein kinase 17B (Homo sapiens) (UniProt O94768); experiment: Selectivity interaction (KinomeScan (DiscoverX)) EUB0001049a STK17B; conditions: at 1 µM
T1 sequence (whole entry): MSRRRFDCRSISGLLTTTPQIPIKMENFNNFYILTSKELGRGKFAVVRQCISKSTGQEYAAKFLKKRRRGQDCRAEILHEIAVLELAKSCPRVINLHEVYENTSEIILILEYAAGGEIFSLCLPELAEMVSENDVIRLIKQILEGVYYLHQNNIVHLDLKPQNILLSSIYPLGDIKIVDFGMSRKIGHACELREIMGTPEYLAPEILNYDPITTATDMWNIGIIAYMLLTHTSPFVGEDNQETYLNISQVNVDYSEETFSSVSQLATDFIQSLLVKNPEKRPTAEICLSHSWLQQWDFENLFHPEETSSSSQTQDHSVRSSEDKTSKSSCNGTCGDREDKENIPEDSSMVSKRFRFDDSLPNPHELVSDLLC

[2] = biological target: T2, Activin receptor type-1 (Homo sapiens) (UniProt Q04771); experiment: Selectivity interaction (KinomeScan (DiscoverX)) EUB0001049a ACVR1; conditions: at 1 µM
T2 sequence (whole entry): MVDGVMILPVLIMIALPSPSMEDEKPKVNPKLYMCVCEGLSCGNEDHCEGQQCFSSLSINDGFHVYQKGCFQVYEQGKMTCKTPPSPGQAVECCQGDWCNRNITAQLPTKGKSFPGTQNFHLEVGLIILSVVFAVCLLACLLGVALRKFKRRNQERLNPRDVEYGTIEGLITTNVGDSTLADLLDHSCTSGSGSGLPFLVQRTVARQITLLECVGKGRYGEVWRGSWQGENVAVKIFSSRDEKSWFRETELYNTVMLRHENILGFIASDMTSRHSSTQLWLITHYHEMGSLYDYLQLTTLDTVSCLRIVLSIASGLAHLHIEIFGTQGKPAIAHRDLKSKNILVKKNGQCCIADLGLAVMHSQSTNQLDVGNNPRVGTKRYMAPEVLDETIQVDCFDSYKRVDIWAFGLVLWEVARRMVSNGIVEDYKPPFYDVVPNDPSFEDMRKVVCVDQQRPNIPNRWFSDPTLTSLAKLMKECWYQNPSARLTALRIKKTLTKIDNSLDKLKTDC

[3] = biological target: Transient receptor potential cation channel subfamily M member 6 (Homo sapiens) (UniProt Q9BX84); experiment: Selectivity interaction (KinomeScan (DiscoverX)) EUB0001049a TRPM6; conditions: at 1 µM
[4] = biological target: Beta-2 adrenergic receptor (Homo sapiens, UniProt P07550); experiment: Selectivity interaction (Panel of kinases, GPCRs, ion channels and transporters (enzymatic assay)) EUB0000266bCl ADRB2
[5] = biological target: T3, Serine/threonine-protein kinase ULK3 (Homo sapiens) (UniProt Q6PHR2); experiment: (§1) Selectivity interaction (ActivX KiNativ screen (kinase selectivity in THP-1 cell lysates)) EUB0000639a ULK3; type: subcellular; conditions: lysate, at 5 µM
T3 sequence (whole entry): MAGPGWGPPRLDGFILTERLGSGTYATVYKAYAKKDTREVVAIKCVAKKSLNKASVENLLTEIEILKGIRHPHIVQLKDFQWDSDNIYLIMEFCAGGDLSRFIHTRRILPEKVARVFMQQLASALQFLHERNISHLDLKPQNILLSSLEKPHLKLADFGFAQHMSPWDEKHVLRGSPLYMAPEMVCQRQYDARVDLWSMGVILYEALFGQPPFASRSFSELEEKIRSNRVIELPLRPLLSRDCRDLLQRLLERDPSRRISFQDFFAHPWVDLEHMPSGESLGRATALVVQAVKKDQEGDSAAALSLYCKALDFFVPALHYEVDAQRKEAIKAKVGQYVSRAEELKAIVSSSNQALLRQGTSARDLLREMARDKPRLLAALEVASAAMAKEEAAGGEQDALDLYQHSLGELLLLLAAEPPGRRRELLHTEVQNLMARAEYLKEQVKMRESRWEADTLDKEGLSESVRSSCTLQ

[6] = biological target: T3, Serine/threonine-protein kinase ULK3 (Homo sapiens); experiment: as §1; type: subcellular; conditions: lysate, at 0.2 µM
[7] = biological target: T4, Serine/threonine-protein kinase RIO1 (Homo sapiens) (UniProt Q9BRS2); experiment: Selectivity interaction (KinomeScan (DiscoverX)) EUB0000618a RIOK1; conditions: at 10 µM
T4 sequence (whole entry): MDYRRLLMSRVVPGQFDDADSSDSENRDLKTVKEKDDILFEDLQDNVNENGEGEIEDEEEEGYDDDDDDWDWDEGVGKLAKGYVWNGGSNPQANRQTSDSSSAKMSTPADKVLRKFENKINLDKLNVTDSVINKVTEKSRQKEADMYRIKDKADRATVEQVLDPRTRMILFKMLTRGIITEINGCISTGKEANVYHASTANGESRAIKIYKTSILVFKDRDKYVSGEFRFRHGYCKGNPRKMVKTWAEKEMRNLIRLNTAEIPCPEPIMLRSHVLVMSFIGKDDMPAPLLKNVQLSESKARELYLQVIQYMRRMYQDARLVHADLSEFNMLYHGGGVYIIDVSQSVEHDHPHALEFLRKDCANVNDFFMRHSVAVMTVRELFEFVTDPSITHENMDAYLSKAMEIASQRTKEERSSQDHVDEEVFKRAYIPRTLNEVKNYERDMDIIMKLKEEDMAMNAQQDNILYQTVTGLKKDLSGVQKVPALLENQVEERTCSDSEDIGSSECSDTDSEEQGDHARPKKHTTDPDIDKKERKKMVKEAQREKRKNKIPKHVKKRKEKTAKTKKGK

[8] = biological target: T5, Phosphatidylinositol 5-phosphate 4-kinase type-2 beta (Homo sapiens) (UniProt P78356); experiment: Selectivity interaction (Kinase panel (KiNativ target engagement assay in Jurkat cells)) EUB0001635a PIP4K2B; type: cell-based; conditions: Selectivity number of off-targets 0.0, Selectivity number of targets 233.0, Source Knowledge https://www.sciencedirect.com/science/article/pii/S2451945619300674?via%3Dihub, at 1 µM
T5 sequence (whole entry): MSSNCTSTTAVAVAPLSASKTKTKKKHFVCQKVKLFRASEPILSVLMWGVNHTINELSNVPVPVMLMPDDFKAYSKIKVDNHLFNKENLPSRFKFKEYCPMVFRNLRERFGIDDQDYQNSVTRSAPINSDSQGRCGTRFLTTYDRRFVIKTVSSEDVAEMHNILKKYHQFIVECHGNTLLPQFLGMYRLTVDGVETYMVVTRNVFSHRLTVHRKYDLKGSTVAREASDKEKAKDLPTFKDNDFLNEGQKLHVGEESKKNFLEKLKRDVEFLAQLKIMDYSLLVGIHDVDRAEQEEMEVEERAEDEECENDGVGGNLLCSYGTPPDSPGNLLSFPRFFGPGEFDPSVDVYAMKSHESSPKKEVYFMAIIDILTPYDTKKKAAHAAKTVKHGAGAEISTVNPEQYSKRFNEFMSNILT

Sequence of Transient receptor potential cation channel subfamily M member 6 (Homo sapiens) (Q9BX84 whole entry): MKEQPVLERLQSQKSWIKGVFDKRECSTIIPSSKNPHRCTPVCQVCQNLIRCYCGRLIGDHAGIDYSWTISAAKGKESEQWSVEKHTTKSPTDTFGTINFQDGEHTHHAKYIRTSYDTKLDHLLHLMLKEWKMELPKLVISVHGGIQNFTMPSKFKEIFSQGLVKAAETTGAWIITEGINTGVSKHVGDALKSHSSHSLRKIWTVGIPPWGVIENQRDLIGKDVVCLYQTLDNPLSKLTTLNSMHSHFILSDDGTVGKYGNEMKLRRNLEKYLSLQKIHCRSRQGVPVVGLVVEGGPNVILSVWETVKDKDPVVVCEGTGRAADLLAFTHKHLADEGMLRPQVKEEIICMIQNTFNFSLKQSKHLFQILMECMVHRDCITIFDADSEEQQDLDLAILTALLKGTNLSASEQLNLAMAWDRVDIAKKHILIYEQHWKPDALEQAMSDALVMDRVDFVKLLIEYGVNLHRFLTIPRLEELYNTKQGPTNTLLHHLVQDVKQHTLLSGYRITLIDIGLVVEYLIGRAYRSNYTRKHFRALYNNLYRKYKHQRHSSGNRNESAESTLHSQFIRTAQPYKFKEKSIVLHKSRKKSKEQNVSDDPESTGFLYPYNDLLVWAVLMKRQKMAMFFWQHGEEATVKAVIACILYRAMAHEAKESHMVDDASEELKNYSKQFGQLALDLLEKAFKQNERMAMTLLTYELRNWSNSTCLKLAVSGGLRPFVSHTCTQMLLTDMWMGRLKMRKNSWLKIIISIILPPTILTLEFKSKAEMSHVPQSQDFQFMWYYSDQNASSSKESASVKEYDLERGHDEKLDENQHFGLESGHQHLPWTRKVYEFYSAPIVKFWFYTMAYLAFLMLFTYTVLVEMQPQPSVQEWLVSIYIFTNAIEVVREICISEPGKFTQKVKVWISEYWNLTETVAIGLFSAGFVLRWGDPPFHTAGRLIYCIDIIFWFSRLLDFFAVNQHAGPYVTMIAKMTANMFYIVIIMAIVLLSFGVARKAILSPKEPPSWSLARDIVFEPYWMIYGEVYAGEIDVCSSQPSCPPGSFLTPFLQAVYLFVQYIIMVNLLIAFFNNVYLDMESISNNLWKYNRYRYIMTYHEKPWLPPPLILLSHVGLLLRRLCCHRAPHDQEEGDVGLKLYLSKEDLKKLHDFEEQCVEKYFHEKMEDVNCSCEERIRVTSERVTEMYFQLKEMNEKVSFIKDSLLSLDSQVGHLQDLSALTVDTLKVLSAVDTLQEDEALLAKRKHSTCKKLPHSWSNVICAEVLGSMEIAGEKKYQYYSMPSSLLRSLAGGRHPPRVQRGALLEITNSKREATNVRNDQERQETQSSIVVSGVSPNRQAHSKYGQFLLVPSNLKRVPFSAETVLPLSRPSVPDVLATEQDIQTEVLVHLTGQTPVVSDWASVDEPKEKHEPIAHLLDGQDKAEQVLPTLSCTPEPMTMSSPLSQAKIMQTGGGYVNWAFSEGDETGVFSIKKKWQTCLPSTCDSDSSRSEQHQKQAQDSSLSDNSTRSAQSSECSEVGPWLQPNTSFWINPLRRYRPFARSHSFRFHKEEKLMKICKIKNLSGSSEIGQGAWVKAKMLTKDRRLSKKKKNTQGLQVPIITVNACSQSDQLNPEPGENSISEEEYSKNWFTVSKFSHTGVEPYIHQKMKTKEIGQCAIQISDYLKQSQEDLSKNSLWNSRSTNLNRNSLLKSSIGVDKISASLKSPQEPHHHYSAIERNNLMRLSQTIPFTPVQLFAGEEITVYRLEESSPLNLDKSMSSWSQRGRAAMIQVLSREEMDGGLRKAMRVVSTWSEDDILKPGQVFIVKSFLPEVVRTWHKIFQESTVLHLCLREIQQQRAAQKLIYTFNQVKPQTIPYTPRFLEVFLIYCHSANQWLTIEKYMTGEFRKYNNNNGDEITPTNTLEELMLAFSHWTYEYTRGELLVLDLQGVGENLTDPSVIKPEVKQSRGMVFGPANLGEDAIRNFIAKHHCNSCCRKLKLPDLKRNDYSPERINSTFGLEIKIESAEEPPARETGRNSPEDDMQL
Sequence of Beta-2 adrenergic receptor (P07550 whole entry, looked up): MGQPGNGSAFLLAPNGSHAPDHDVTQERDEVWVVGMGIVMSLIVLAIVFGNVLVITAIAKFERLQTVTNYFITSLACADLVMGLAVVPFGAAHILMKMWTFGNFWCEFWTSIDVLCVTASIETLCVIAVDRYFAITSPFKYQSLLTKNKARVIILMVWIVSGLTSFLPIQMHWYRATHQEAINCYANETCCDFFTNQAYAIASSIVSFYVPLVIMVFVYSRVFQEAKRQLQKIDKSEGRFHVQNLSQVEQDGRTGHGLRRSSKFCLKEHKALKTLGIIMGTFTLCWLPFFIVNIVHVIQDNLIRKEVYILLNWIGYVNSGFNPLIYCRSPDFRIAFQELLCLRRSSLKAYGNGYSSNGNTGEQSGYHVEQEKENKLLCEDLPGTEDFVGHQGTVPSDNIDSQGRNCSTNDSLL

Structure (SMILES): COc1cc(Nc2nc(C)cc(-c3cnn4nc(OC)ccc34)n2)cc(C(F)(F)F)c1
% of control [1]: 81%
% of control [2]: 78%
% of control [3]: 96%

pXC50 [4]: < 4.5 M
Structure (SMILES): CCn1c(-c2nc3cc(C(=O)N4CCCC(N)C4)ccc3n2C)cc2ccccc21 (stereo not drawn)

% of inhibition [5]: -10.2%
% of inhibition [6]: -8.1%
Structure (SMILES): CC[C@@H]1[C@H](F)C(=O)N[C@@H]1COc1nccc2cc(C(N)=O)c(OC)cc12 [ZIMLOVISERTIB]

Structure (SMILES): O[C@H]1CC[C@H](Nc2ncc3nc(Nc4c(F)cc(F)cc4F)n([C@H]4CCOC4)c3n2)CC1
% of control [7]: 100%

Structure (SMILES): C=CC(=O)Nc1ccc(C(=O)Nc2[nH]nc3c2CN(C(=O)N[C@H](CN(C)C)c2ccccc2)C3(C)C)cc1
% of engagement [8]: -4.5%

Reference: ChEMBL document CHEMBL5465560, “Selectivity Literature for EUbOPEN Chemogenomic Library” (2024)
